Measurements taken from patent US20030147957A1, “Dual release formulation comprising levodopa ethyl ester and a decarboxylase inhibitor in immediate release layer with levodopa ethyl ester and a decarboxylase inhibitor in a controlled release core” (priority 2001, published 2003).
In brackets after ≈: the same amount, converted by molar mass.

Assay: Solubility versus pH at ~22-24° C.
Type: physicochemical
Details: 23 °C
Text: However, carbidopa and LDEE, examples of two active materials in the composition of the present invention, have different chemical and physical properties and contrasting solubility characteristics especially in acid conditions, i.e., in the gastrointestinal tract (see Table 1).

[1] = aqueous buffer, pH 5.0, ~22-24° C.
[2] = simulated gastric fluid, pH 1.0, ~22-24° C.

Row | solubility [1] | solubility [2] | Compound
1 | 1660 µg/mL (≈ 7.34 mM) | 21400 µg/mL (≈ 94.6 mM) | C[C@@](Cc1ccc(O)c(O)c1)(NN)C(=O)O [Carbidopa, carbidopa]
2 | 4960 µg/mL (≈ 25.2 mM) | 5380 µg/mL (≈ 27.3 mM) | N[C@@H](Cc1ccc(O)c(O)c1)C(=O)O [Levodopa, levodopa]
